Activity calls are given as the source filed them. No cut-off for these calls is given here.
Key:
HeLa = assay: Cytotoxicity against human HeLa cells after 20 hrs by MTS assay; assay type: functional, cell-based
A549 = assay: Cytotoxicity against human A549 cells after 20 hrs by SRB assay; assay type: functional, cell-based; conditions: A549, 20 h
MOLT-3 = assay: Cytotoxicity against human MOLT3 cells after 20 hrs by MTS assay; assay type: functional, cell-based; conditions: MOLT-3, 20 h
THP-1 = assay: Cytotoxicity against human THP1 cells after 20 hrs by MTS assay; assay type: functional, cell-based; conditions: THP-1, 20 h
U-937 = assay: Cytotoxicity against human U937 cells after 20 hrs by MTS assay; assay type: functional, cell-based; conditions: U-937, 20 h
Vero = assay: Cytotoxicity against african green monkey Vero cells after 20 hrs by MTS assay; assay type: cell-based; conditions: Chlorocebus sabaeus
Nucleic Acid [1] = assay: Binding affinity to Escherichia coli phiX174 RF1 DNA poly GC fragment assessed as DNA unwinding in presence of topoisomerase 1 after 30 mins by electrophoresis; assay type: nucleic-acid assay
Nucleic Acid [2] = assay: Binding affinity to Escherichia coli phiX174 RF1 DNA poly-d(G-C)2 fragment assessed as DNA unwinding in presence of topoisomerase 1 after 30 mins by electrophoresis; assay type: nucleic-acid assay

SMILES | IC50 (HeLa) [µM] | IC50 (A549) [µM] | IC50 (MOLT-3) [µM] | IC50 (THP-1) [µM] | IC50 (U-937) [µM] | IC50 (Vero) [µM] | Activity (Nucleic Acid [1]) | Activity (Nucleic Acid [2])
OC[C@@H]1C[C@H](c2ccc3ccc4cccc5ccc2c3c45)N(Cc2ccccc2O)O1 (racemic) [listing 1 of 2 here] | 4 | 2 | 5 | 7 | 32 | 37 |  | 
OC[C@@H]1C[C@H](c2ccc3ccc4cccc5ccc2c3c45)N(Cc2ccccc2O)O1 (racemic) [listing 2 of 2 here] |  |  |  |  |  |  | Active | 
OC[C@H]1C[C@H](c2ccc3ccc4cccc5ccc2c3c45)N(Cc2ccccc2O)O1 (racemic) | 11 | 9 | 13 | 15 | 88 | 103 |  | 
OC[C@@H]1C[C@H](c2ccc3ccc4cccc5ccc2c3c45)N(Cc2ccccc2O)O1 |  |  |  |  |  |  |  | Active

From ChEMBL document CHEMBL2057103, “Synthesis and biological activity of novel bifunctional isoxazolidinyl polycyclic aromatic hydrocarbons” (Bioorg Med Chem, 2012)
